Values quoted from earlier work, collected in patent US20040022740A1, “Macrolide formulations for inhalation and methods of treatment of endobronchial infections” (priority 2003, published 2004).

- oral bioavailability (in humans): 10-14%
- elimination into the feces (in vivo): 62-81%
Compound: CC[C@H]1OC(=O)[C@H](C)[C@@H](O[C@H]2C[C@@](C)(OC)[C@@H](O)[C@H](C)O2)[C@H](C)[C@@H](O[C@@H]2O[C@H](C)C[C@H](N(C)C)[C@H]2O)[C@](C)(O)C[C@@H](C)[C@@H]2N[C@@H](COCCOC)O[C@H]([C@H]2C)[C@]1(C)O [dirithromycin]
